The text below walks through data of ChEMBL document CHEMBL1130645, “Synthesis and evaluation of artificial taxoids with antitumor and multi-drug resistance reversing activities” (1998).

Assay [1] is filed under the species Homo sapiens. Put plainly: Compound was evaluated for inhibition of tumor cell growth using sulforhodamine-B assay in human BSY-1 cell. The format is functional. (In SRB staining, fixed cells bind dye roughly in proportion to their protein.)
Assay [2] can be described thus: Compound was evaluated for vincristine accumulation in ovarian MDR cancer cells (2780AD) at a concentration of 1.0 ug/mL. The format is functional, Homo sapiens.
A short description of assay [3]: Compound was evaluated for vincristine accumulation in ovarian MDR cancer cells (2780AD) at a concentration of 10 ug/mL. Type of assay: functional, Homo sapiens.
Assay [4] has as its system P388. Kind of assay: Compound was evaluated for inhibition of tumor cell growth using sulforhodamine-B assay in mouse […] p338 cell line. The format is functional.
A short description of assay [5]: Compound was evaluated for inhibition of tumor cell growth using sulforhodamine-B assay in 38 human cell lines. Type of assay: functional.

For the molecule `CC1=C2[C@@H](Sc3ccccc3)[C@H](OCCO)C3=C([C@H](OCc4ccccc4)[C@](O)(C[C@@H]1OC(=O)[C@H](O)[C@@H](NCc1ccccc1)c1ccccc1)C2(C)C)[C@@](C)(O)CCC3`, in assay [1], it took 9.5 µM to inhibit growth by half (GI50). The Control was 151% in assay [2] and 217% in assay [3].

For the molecule `CC(=O)O[C@@]1(C)CCCC2=C1[C@H](OCc1ccccc1)[C@]1(O)C[C@H](OC(=O)[C@H](O)[C@@H](NCc3ccccc3)c3ccccc3)C(C)=C([C@@H](Sc3ccccc3)[C@@H]2OCCO)C1(C)C`, the GI50 in assay [4] and in assay [5] was 10 µM each time. For the same molecule, the Control in assay [2] is on record as 80%; in assay [3], 102%.

One may read the GI50 as the concentration giving 50% growth inhibition. Low values mean more potent growth inhibition, high ones less potent growth inhibition.
